In BindingDB's records for doi:10.1021/jm00100a021 (University of Illinois, 1992) one finds koff data, which are given here for two molecules.

Experiment [1] addresses Urokinase-type plasminogen activator (Homo sapiens, UniProt P00749). Description: ChEBML_213149. The source says: […] rate constant against Urokinase-type plasminogen activator
The target of the next experiment is T1, Serine protease 1 (Bos taurus, UniProt P00760).
T1 sequence (P00760 whole entry): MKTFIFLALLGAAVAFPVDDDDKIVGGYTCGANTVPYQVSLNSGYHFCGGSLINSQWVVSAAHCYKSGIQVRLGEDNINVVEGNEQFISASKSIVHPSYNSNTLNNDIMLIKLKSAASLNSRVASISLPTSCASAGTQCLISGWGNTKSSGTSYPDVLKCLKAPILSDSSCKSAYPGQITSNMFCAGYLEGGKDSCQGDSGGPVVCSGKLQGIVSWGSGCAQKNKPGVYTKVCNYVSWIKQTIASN
Briefly: ChEBML_212371. An excerpt:
[…] rate constant against trypsin

Each structure is given as a SMILES string.

As to `C=C1CC(c2ccc(N=C(N)N)cc2)CC(=O)O1` (stereo not drawn), the dissociation rate constant (koff) in experiment [1] was 0.00015 s⁻¹; at Serine protease 1, 3.3e-05 s⁻¹. On to `N=C(N)Nc1ccc(C2CC(=O)O/C(=C/I)C2)cc1` (stereo not drawn), for which, on Serine protease 1, the koff stood at 0.000333 s⁻¹.

By koff is commonly meant the first-order rate constant of dissociation. Read a high koff as a short-lived complex.
